This note sets out measurements from patent US12168019B1, “8-hydroxy quinoline derivatives for enhancing telomerase reverse transcriptase (TERT) expression” (Sierra Sciences, Inc., priority 2010, dated 2024).

For the assay, the system named is human TERT expression (hTERT mRNA transcripts). The assay is described as follows: Quantitative real-time RT-PCR of hTERT mRNA transcripts in compound-treated cells. Further: test concentration or dose not given here. The format is cell-based. From the text:
Telomerase is a ribonucleoprotein complex composed of the catalytic protein subunit (human telomerase reverse transcriptase or hTERT) and the RNA template. hTERT expression level can be measured by PCR.
Quantitative Reverse Transcription PCR can be run according to procedures outlined in Yajima et al. (Yajima, T. et al. Quantitative Reverse Transcription-PCR Assay of the RNA Component of Human Telomerase Using the TaqMan Fluorogenic Detection System Clinical Chemistry, 44:12, 2441-2445, 1998).
The principle of real-time PCR was first described by Heid et al. (Heid C. A., Stevens J., Livak K. J., Williams P. M. Real time quantitative PCR. Genome Res., 6: 986-994, 1996). Briefly, amplification of the target sequence is monitored per PCR cycle by detecting the fluorescence signal emitted by an internal probe that is degraded by the 5′ nuclease activity of the Taq polymerase. The emission signal accumulates in each sample, and the Ct required to reach a given fluorescence threshold is determined (Ct stands for Cycle Threshold and is a measure of the number of PCR cycles that are required to amplify a target—thus, a lower Ct score means that there is more abundant hTERT mRNA). Thus, the C1 value of a sample inversely correlates to the quantity of the starting cDNA which correlates to the number of mRNA transcripts. Using the cDNA of known quantity, a standard curve can be generated and used to determine the starting amount of mRNA transcripts based on the […] of each sample.
Quantitative real-time PCR can be done on cDNA from test compound-treated and nontreated cells by use of a ABI Prism 7900 Sequence Detection System (PE Applied Biosystems, Foster City, CA) following the Assays-on-Demand protocol (PE Applied Biosystems, Foster City, CA). Quantitative data can be analyzed using the Sequence Detection System software version 2.1 (PE Applied Biosystems).
The following compounds were tested in assays designed to identify compounds that enhance human TERT expression. The compounds turned on human TERT expression in these assays.
Background: Quantitative PCR measures a nucleic acid by following its amplification.
For `COc1ccc(C(=O)NC(c2ccco2)c2cc(Cl)c3cccnc3c2O)cc1` (stereo not shown) [Compound 1012], the “Average Number of hTERT Transcripts” value was 12.01.
Take `Oc1c(C(Nc2ccccn2)c2c(Cl)cccc2Cl)ccc2cccnc12` (stereo not shown) [Compound 1009]: the “Average Number of hTERT Transcripts” value is 50.29.
As for `CCN(CC)c1ccc(C(NC(=O)C(C)C)c2ccc3cccnc3c2O)cc1` (stereo not shown) [Compound 1060], the figure is 65.91; as for `CC(=O)NC(c1ccccc1)c1cc([N+](=O)[O-])c2cccnc2c1O` (stereo not shown) [Compound 1050], 47.68; as for `CCCCC(=O)NC(c1ccc(OC)cc1)c1cc(Cl)c2cccnc2c1O` (stereo not shown) [Compound 1061], 128.91.
Then `CCCCC(=O)NC(c1ccc(OC)cc1)c1cc([N+](=O)[O-])c2cccnc2c1O` (stereo not shown) [Compound 1040], with 25.16.
Then `CCCCC(=O)NC(c1ccc(OC)c(OC)c1)c1cc([N+](=O)[O-])c2cccnc2c1O` (stereo not shown) [Compound 1053], with 47.54.
On to `CCCCC(=O)NC(c1cccs1)c1cc(Cl)c2cccnc2c1O` (stereo not shown) [Compound 1067], for which the “Average Number of hTERT Transcripts” value is given as 16.2.
As for `CCCCC(=O)NC(c1ccccc1Cl)c1cc([N+](=O)[O-])c2cccnc2c1O` (stereo not shown) [Compound 1031], the figure is 44.8; as for `CCN(CC)Cc1ccc(O)c2ncccc12` [Compound 1096], 48.25; as for `CCC(=O)NC(c1ccco1)c1cc(Cl)c2cccnc2c1O` (stereo not shown) [Compound 1039], 30.9.
Then `COCc1cc(CN2CCCC2)c(O)c2ncccc12` [Compound 1097], with 77.36.
Then `COC(=O)c1ccc(C(Nc2cc(C)ccn2)c2ccc3ccc(C)nc3c2O)cc1` (stereo not shown) [Compound 1008], with 43.18.
On to `CC(C)C(=O)NC(c1ccco1)c1ccc2cccnc2c1O` (stereo not shown) [Compound 1087], for which the “Average Number of hTERT Transcripts” value is reported as 240.41.
As for `CCCC(=O)NC(c1ccc(N(CC)CC)cc1)c1cc(Cl)c2cccnc2c1O` (stereo not shown) [Compound 1070], the figure is 68.65; as for `Cc1ccc(S(=O)(=O)Nc2cc(Cl)c(O)c3ncccc23)cc1` [Compound 1092], 96.33; as for `CCC(=O)NC(c1ccc(OC)c(OC)c1)c1cc(Cl)c2cccnc2c1O` (stereo not shown) [Compound 1032], 39.96.
Then `Oc1c(C(Nc2ccccn2)c2cccc(Cl)c2Cl)ccc2cccnc12` (stereo not shown) [Compound 1006], with 25.82; and `O=C(COc1ccccc1)NC(/C=C/c1ccccc1)c1cc(Cl)c2cccnc2c1O` (stereo not shown) [Compound 1015], with 63.93; and `CCCCC(=O)NC(c1ccc(Cl)cc1)c1cc([N+](=O)[O-])c2cccnc2c1O` (stereo not shown) [Compound 1054], with 8.59.
As for `Oc1c(C(Nc2ccccn2)c2ccc(Cl)c(Cl)c2)ccc2cccnc12` (stereo not shown) [Compound 1082], the figure is 7.54; as for `Cc1ccc2ccc(C(Nc3ccccn3)c3ccccc3Br)c(O)c2n1` (stereo not shown) [Compound 1108], 31.13.
As for `CC(C)C(=O)NC(c1ccc(C(C)C)cc1)c1cc([N+](=O)[O-])c2cccnc2c1O` (stereo not shown) [Compound 1071], the “Average Number of hTERT Transcripts” value is given as 70.74.
As for `CCCCC(=O)NC(c1ccco1)c1cc([N+](=O)[O-])c2cccnc2c1O` (stereo not shown) [Compound 1055], the figure is 28.89; as for `COc1ccc(C(=O)NC(/C=C/c2ccccc2)c2cc(Cl)c3cccnc3c2O)cc1` (stereo not shown) [Compound 1016], 10.9.
Then `CC(=O)NC(c1cccs1)c1ccc2cccnc2c1O` (stereo not shown) [Compound 1058], with 47.99; and `Oc1c(C(Nc2ccccn2)c2ccc(OC3CCCC3)cc2)ccc2cccnc12` (stereo not shown) [Compound 1004], with 12.11; and `O=C(CCc1ccccc1)NC(c1ccc2c(c1)OCO2)c1ccc2cccnc2c1O` (stereo not shown) [Compound 1065], with 24.47.
Then `COc1ccc(C(NC(=O)C2CCCCC2)c2cc([N+](=O)[O-])c3cccnc3c2O)cc1OC` (stereo not shown) [Compound 1072], with 93.44; and `CCC(=O)NC(c1ccccc1OC)c1cc([N+](=O)[O-])c2cccnc2c1O` (stereo not shown) [Compound 1051], with 45.24.
On to `COc1ccc(C(=O)NC(c2ccc(Cl)cc2)c2cc(Cl)c3cccnc3c2O)cc1` (stereo not shown) [Compound 1014], for which the “Average Number of hTERT Transcripts” value came to 11.55.
Then `Cc1cc(NC(c2ccccn2)c2ccc3cccnc3c2O)no1` (stereo not shown) [Compound 1104], with 19.27; and `CCOCc1cc(CN2CCCCC2)c(O)c2ncccc12` [Compound 1099], with 67.59; and `Oc1ccc(CN2CCN(c3cccc(Cl)c3)CC2)c2cccnc12` [Compound 1113], with 29.15.
Then `CCCCC(=O)NC(c1ccccc1OC)c1cc([N+](=O)[O-])c2cccnc2c1O` (stereo not shown) [Compound 1027], with 19.72.
As for `CCCC(=O)NC(c1ccc(N(C)C)cc1)c1cc(Cl)c2cccnc2c1O` (stereo not shown) [Compound 1066], the figure is 43.68; as for `CCCC(=O)NC(c1cccs1)c1cc([N+](=O)[O-])c2cccnc2c1O` (stereo not shown) [Compound 1048], 58.04; as for `CC(C)C(=O)NC(c1ccc(C(C)C)cc1)c1cc(Cl)c2cccnc2c1O` (stereo not shown) [Compound 1062], 47.98.
`Cc1ccnc(NC(c2cccc(Br)c2)c2ccc3ccc(C)nc3c2O)c1` (stereo not shown) [Compound 1083]: the “Average Number of hTERT Transcripts” value was 18.44.
On to `COc1ccc(C(NC(=O)C(C)C)c2cc([N+](=O)[O-])c3cccnc3c2O)cc1OC` (stereo not shown) [Compound 1112], for which the “Average Number of hTERT Transcripts” value is reported as 58.99.
As for `O=C(CCc1ccccc1)NC(c1ccc(Cl)cc1)c1ccc2cccnc2c1O` (stereo not shown) [Compound 1109], the figure is 34.36; as for `CCCC(=O)NC(c1ccc(Cl)cc1)c1cc([N+](=O)[O-])c2cccnc2c1O` (stereo not shown) [Compound 1044], 92.93; as for `CCCOCc1cc(CN2CCN(C)CC2)c(O)c2ncccc12` [Compound 1101], 24.8.
As for `CC(C)C(=O)NC(c1ccc(Cl)cc1Cl)c1ccc2cccnc2c1O` (stereo not shown) [Compound 1042], the figure is 10.53; as for `CC1CCN(Cc2cc(COC(C)C)c3cccnc3c2O)CC1` [Compound 1103], 70.5; as for `CCCC(=O)NC(c1ccco1)c1cc(Cl)c2cccnc2c1O` (stereo not shown) [Compound 1077], 15.88.
Turning to `CC(=O)NC(c1ccc(Br)cc1)c1ccc2cccnc2c1O` (stereo not shown) [Compound 1022], the “Average Number of hTERT Transcripts” value was found to be 60.01.
As for `COc1cccc(C(=O)NC(/C=C/c2ccccc2)c2cc(Cl)c3cccnc3c2O)c1` (stereo not shown) [Compound 1017], the figure is 96.98.
As for `CCCCC(=O)NC(c1cccs1)c1cc([N+](=O)[O-])c2cccnc2c1O` (stereo not shown) [Compound 1063], the figure is 205.2; as for `Oc1c(Br)cc(Br)c2cccnc12` [Compound 1019], 271.75.
In the case of `CCC(=O)NC(c1ccccc1Cl)c1cc([N+](=O)[O-])c2cccnc2c1O` (stereo not shown) [Compound 1074], the “Average Number of hTERT Transcripts” value worked out at 49.89.
Consider `Oc1c(I)cc(Cl)c2cccnc12` [Compound 1021], for which the “Average Number of hTERT Transcripts” value was determined as 60.68.
`O=S1(=O)CCC(N2COc3c(cc(Cl)c4cccnc34)C2)C1` (stereo not shown) [Compound 1107]: the “Average Number of hTERT Transcripts” value was determined as 7.97.
Then `CCC(=O)NC(/C=C/c1ccccc1)c1cc([N+](=O)[O-])c2cccnc2c1O` (stereo not shown) [Compound 1035], with 66.72.
Then `CCCC(=O)NC(c1ccc(O)c(OCC)c1)c1cc([N+](=O)[O-])c2cccnc2c1O` (stereo not shown) [Compound 1036], with 65; and `Cc1ccc2c(I)cc(I)c(O)c2n1` [Compound 1105], with 51.56; and `CC(=O)NC(c1ccc(C(C)C)cc1)c1ccc2cccnc2c1O` (stereo not shown) [Compound 1030], with 26.47.
As for `CC(=O)NC(c1ccc(C(C)C)cc1)c1cc(Cl)c2cccnc2c1O` (stereo not shown) [Compound 1057], the figure is 12.42.
On to `Cc1ccc(C(NC(=O)C(C)C)c2ccc3cccnc3c2O)cc1` (stereo not shown) [Compound 1088], for which the “Average Number of hTERT Transcripts” value is 191.81.
As for `COCc1cc(CN2CCCCC2)c(O)c2ncccc12` [Compound 1098], the figure is 102.7; as for `O=C(NC(c1ccccc1)c1ccc2cccnc2c1O)c1ccccc1` (stereo not shown) [Compound 1086], 48.77.
